Assay results reported in US20250154138A1, “Small Molecule IL-17A Modulators” (BeiGene, Ltd., priority 2022, published 2025).
pIC50: −log10 of the molar value.

Columns and labels:
[1] = molecular target: human IL-17A / human IL-17RA (Homo sapiens (Human), UniProt Q16552); assay: Human IL-17A biochemical assay (HTRF, blocking of IL-17A binding to IL-17RA); details: 0.4 nM IL-17A, 0.3 nM IL-17RA, max compound concentration 10 uM
Method in brief: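 Recombinant human IL-17A (0.4 nM) was pre-incubated with compound (top 10 uM, 2.7-fold, 10 points) for 3 h at room temperature in 20 mM HEPES pH 7.5, 50 mM NaCl, 0.1% BSA, 0.2 mM DTT, 0.005% Tween 20. IL-17RA (0.3 nM) was then added for 1 h, followed by anti-6His Tb and anti-human IgG-XL665 detection for 1 h; IC50 from four-parameter fit.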

[2] = system: IL-17-induced GROα secretion from HT-29 cells; assay: GROα release assay in human colorectal adenocarcinoma epithelial cell (HT-29, ELISA); format: cell-based; details: Homo sapiens, HT-29, 48 h, 10 ng/mL IL-17A, highest concentration 10 μM, read-out: Cellular assay HT29 cell/CXCL1 IC50
Method in brief: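 HT-29 cells were exposed 48 h at 37°C to IL-17A (final 10 ng/mL) preincubated 15 min with compound (4-fold dilutions, top 10 μM). Secreted GROα was quantified by ELISA against a standard curve, and IC50 obtained by four-parameter fitting.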

human IL-17A / human IL-17RA, sequence (Q16552 24-155): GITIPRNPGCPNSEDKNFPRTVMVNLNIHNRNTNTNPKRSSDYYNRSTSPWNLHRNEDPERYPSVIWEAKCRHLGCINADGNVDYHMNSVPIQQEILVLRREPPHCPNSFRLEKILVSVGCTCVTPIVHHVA

## Cn1nccc1C(=O)N[C@H](C(=O)Nc1ccc2c(c1)OCC(CN1CC(C(F)(F)F)NC1=O)C2)C1CCCCC1 (stereo partly drawn) [Example 291, N-((1S)-1-cyclohexyl-2-oxo-2-((3-(((S)-2-oxo-4-(trifluoromethyl)imidazolidin-1-yl)methyl)chroman-7-yl)amino)ethyl)-1-methyl-1H-pyrazole-5-carboxamide]
[1]
  pIC50: 5.81
[2]
  pIC50: 5.97
